Test results from patent US4845233A, “Imidazolin-2-ones” (IPRX, Inc., priority 1987, dated 1989).

How the values were obtained:
[1] = in vitro transdermal penetration of indomethacin from petrolatum ointment through shed snake skin, vertical diffusion cell; type: in vitro ADME, Elaphe obsoleta (black rat snake); details: for Relative Penetration: 5% enhancer in ointment, indomethacin, slope relative to Azone = 100%
Description: Ointments were prepared by mixing 1% indomethacin, 5% dermal penetration enhancer and 94% petrolatum at 55°-60° C. to give a homogeneous dispersion of indomethacin. In the cases where the enhancers are liquid the indomethacin and the enhancer were first mixed well and then followed by the incorporation of the petrolatum. The mixture was melted at 55°-60° C. and stirred until a homogeneous ointment was obtained. For low melting enhancers, the enhancer and the indomethacin were melted together and mixed in a water-bath followed by the incorporation of petrolatum. For high melting enhancers, it was necessary to mix the components in an agate mortar.
A whole shed snake skin from the molt of adult Elaphe obsoleta (black rat snake) was obtained from the Animal Care Unit of the University of Kansas. Only the dorsal side of the shed snake skin was used for in vitro penetration studies. The head and tail sections of the snake skin was removed and the remainder of the skin was cut randomly into sections of approximately 2 inches by 2 inches. Each piece of snake skin was hydrated overnight by first soaking the skin in water (about 5 to 10 min) until it could be stretched and then it was placed on a plastic pan which held some water. The pan was floated on a water-bath of 32° C. overnight.
Approximately 30 mg of ointment as prepared as described in Example 23 was smeared evenly on an area of the 2"×2" snake skin. The ointment was smeared into an essentially circular area approximately 1.77 cm^2 and having a diameter of approximately 15 mm. The snake skin was then mounted on top of the receptor cell of a verticle diffusion cell assembly in which a small magnetic bar was inserted and filled with an isotonic buffer. A rubber o-ring was placed on top of the skin followed by the placement of the donor cell. The two cells were clamped together and transferred to a water-bath (32° C.) which had several magnetic stirrers placed underneath to stir the contents of the diffusion cells. Samples from the cells were withdrawn periodically by gravity by inputing fresh isotonic buffer into the cells inlets. The first five drops were discarded and the following four drops were collected for analysis. These nine drops of sample solution were approximately equivalent to about 0.20 ml.
The samples were analyzed for the concentration of indomethacin using either a Spectroflow 783 programmable absorbance detector or a Perkin-Elmer ISS-100 HPLC apparatus with a Perkin-Elmer LC9 UV spectrophotometric detector and a Perkin-Elmer ISS-100 automatic sampler with the detection wavelength set at 260 nm. A reverse phase column, RP-8 Spheri-5, 4.6×100 mm and a guard tube OD-GU, purchased from Brownlee Labs, were used in conjunction with the HPLC system. The flow rate was 1.0 ml/min and the solvent system was a mixture of acetonitrile (50%) and a 0.01M phosphate buffer (pH 3.0) (50%).
The concentration in each sample was interpreted from a standard curve which was obtained by plotting the peak areas obtained from HPL chromatograms versus four different standard solutions of indomethacin. The standard curves were linear over a range of concentrations from 2.5 to 10 ug/ml. The receptor cell volume was calibrated by weighing the amount of water in the cell. The first sample needs no concentration correction. However, the concentration in the subsequent samples can be corrected by the following equation [formula] where xi is a member of microgram of indomethacin in the i^th sample. Also, the volume withdrawn for each sampling is about 0.20 ml. Yi is the concentration correction for i-1 sample.
The foregoing results were obtained by using 5% of the transdermal penetration enhancer in the ointment. […] Thus, Table III primarily reflects the transdermal penetration data of […] from ointments of 94% petrolatum and 5% enhancer. In Run No. 14, Azone was selected as the standard for comparison since it is claimed to be an excellent enhancer although it is too toxic. […]

[2] = as above; type: in vitro ADME, Elaphe obsoleta (black rat snake); details: * 10% enhancer in ointment, slope relative to Azone = 100%
[3] = tested on: Swiss white mice; details: mouse, in vivo, sc, 1000 mg/kg
[4] = tested on: Swiss white mice; test: Chronic Toxicity Study, subcutaneous daily for 14 days; type: in vivo; details: 1000 mg/Kg daily for 14 days
Description: The compound identified in Example 25 and represented as Run No. 3 in Table III, was also evaluated for chronic toxicity. Six Swiss white mice were injected subcutaneously at a dose of 1000 mg/Kg daily for 14 days. A sample dispersion of 400 mg/4.0 ml was prepared by dispersing the soft enhancer in a powder form in a 2% Tween 80 saline solution. The homogeneous dispersion was obtained by vortexing the material in a conical flask in which a plastic ball was placed. Sample dispersion was prepared alternative day in order to avoid serious contamination. Prior to injection the dispersion was shaken and withdrawn into a sterile graduated 1 cc TB syring (readable to 0.05 ml). Sterile hypodermic needles (25.4 mm) were required for injecting the dispersion. The control mice were injected an equivalent volume of the 2% Tween 80 suspension in saline. The suspension was prepared on an alternative day to avoid serious contamination. […] Two mice injected with the sample and one from the control were sacrificed and dissected for examination. For the control mouse, there was no obvious damage to the tissue and the internal organs. […] The mice were maintained for a period of 39 days during which time one mouse was sacrificed to check for the presence of the yellowish material.

[5] = intraperitoneal; cited from earlier work

Compound | Relative Penetration [1] | also measured
CCCCCCCCCCCC(=O)OCCCn1ccn(C)c1=O [compound 5] | 100% | 
CCCCCCCCCC(=O)OCn1ccn(C)c1=O [compound 11] | 10% | 
CCCCCCCCCCCC(=O)OCCn1ccn(C)c1=O [compound 6] | 60% | 
CCCCCCCCCCCCCCOC(=O)OCn1ccn(C)c1=O [Run No. 10] | 10% | 
CCCCCCCCCCCC(=O)OCn1ccn(C)c1=O [Run No. 12, 1-Methyl-4-imidazolin-2-one-3-methylenedodecanoate] | 10% | Relative Penetration [2]: 20%
CCCCCCCCCC(=O)OC(C)Cn1ccn(C)c1=O (centres unmarked) [compound 13] | 50% | 
CCCCCCCCCCCCCC(=O)OC(C)n1ccn(C)c1=O (centres unmarked) [compound 3] | 80-100% | damage to internal organs and tissue at the injection site (dissection) [3]: no obvious damage to the internal organs and tissue at the injection site; damage to internal organs (dissection) [4]: no obvious damage to the internal organs was seen; injection site finding (dissection) [4]: a substantial amount of yellowish material was found on the injection site; yellowish material at injection site at follow-up ([4]; after 39 days): The yellowish material disappeared after 39 days; Relative Penetration [2]: 50%
1-Methyl-4-imidazolin-2-one-3-propylenedodecanoate [Run No. 5] |  | penetration enhancement of indomethacin versus Azone (FIG. 1) ([1]; within the first 24 hours): well above that of the standard Azone
CCCCCCCCCCCCOC(=O)OCn1ccn(C)c1=O [compound 8] | 50% | 
CCCCCCCCCCCC(=O)OC(C)Cn1ccn(C)c1=O (centres unmarked) [compound 1] | 120-200% | 
CCCCCCCCCCCCCC(=O)OC(C)Cn1ccn(C)c1=O (centres unmarked) [compound 2] | 70% | 
CCCCCCCCCCOC(=O)OCn1ccn(C)c1=O [Run No. 9] | 15% | 
CCCCCCCCCCCCN1CCCCCC1=O [Azone, 1-Dodecylazacycloheptane-2-One, reference compound] | 100% | LD50 [5]: approximately 232 mg/kg
CCCCCCCCCCCCCC(=O)OC(C)n1ccn(CC)c1=O (stereo not drawn) [Run No. 7, 1-ethyl-4-imidazolin-2-one-3-α-ethyltetradecanoate] | 50% | 
CCCCCCCCCCCC(=O)OC(C)n1ccn(C)c1=O (centres unmarked) [compound 4] | 60% | Relative Penetration [2]: 40%
